What is called TGI is the concentration giving total growth inhibition.

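Briefly, cells in 96-well plates were exposed to five compound concentrations for 48 h, and endpoints were estimated by linear interpolation. The concentration for full growth arrest is given as TGI.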

This is an account of results in PubChem BioAssay (NCI).

Common to all, as to experiment: DTP human tumour cell line panel, 48 h
Test [1] concerns A549 NSCLC.
Test [2] has as its system ACHN renal.
Test [3] concerns BT-549 breast.
The test system of test [4] is DU-145 prostate.
Test [5] deals with HCT-116 colon.
The test system of test [6] is IGROV1 ovarian.
The test system of test [7] is KM12 colon.
Test [8] relates to OVCAR-3 ovarian.
For test [9], the system named is OVCAR-4 ovarian.
The test system of test [10] is OVCAR-5 ovarian.
The test system of test [11] is OVCAR-8 ovarian.
Test [12] has as its system PC-3 prostate.
Test [13] has as its system RPMI-8226 leukemia.
In test [14] the test system is SF-268 CNS.
The subject of test [15] is SK-MEL-2 melanoma.
For test [16], the system named is SR leukemia.
Test [17] deals with SW-620 colon.
Test [18] has as its system UACC-257 melanoma.

Take `Nc1nc2n[nH]nc2c(=O)[nH]1`: the TGI in [1] was above 100 µM; in [2], above 59.7 µM; in test [3], 37.8 µM; in [4], above 57.5 µM; in [5], 8.95 µM; in test [6] it was above 100 µM. Moreover, the TGI in test [7] was above 100 µM; in test [8], 73.8 µM; in test [9] it was above 100 µM; in test [10], above 88.4 µM; in [11], above 100 µM; in test [12] it was above 100 µM. The TGI in [13] is 15.7 µM; in test [14], above 100 µM; in test [15] it was 1.69 µM; in [16], 20.4 µM; in test [17], above 100 µM; in test [18], 56.2 µM.
Consider `Cc1ccc(N2CCC3(CC2)OCCO3)cc1`, for which the TGI in test [1], in test [2], in test [3], in test [4], in test [5] and in [6] was above 100 µM in each case. Moreover, the TGI in test [7], in test [8], in test [9], in [10], in test [11] and in test [12] was above 100 µM each time. Moreover, the TGI in test [13], in test [14], in test [15], in [16], in [17] and in test [18] was above 100 µM throughout.
As to `COC(=O)CN1SC2(SC13C(C)(C)C(=O)C3(C)C)C(C)(C)C(=O)C2(C)C`, the TGI in test [1] was above 100 µM; in test [2], above 100 µM; in test [3], 90.3 µM; in test [4], above 100 µM; in test [5] it was above 100 µM; in [6] it was above 100 µM. Besides, the TGI in test [7], in test [8], in test [9], in test [10], in [11] and in test [12] was above 100 µM in each case. The TGI in [13], in test [14], in [15], in test [16], in [17] and in [18] was above 100 µM in each case.
With `CC1=NN(C(=O)CC(=O)Nc2ccc(C)cc2)C(=O)C1N=Nc1ccc(S(=O)(=O)c2ccc(N=NC3C(=O)N(C(=O)CC(=O)Nc4ccc(C)cc4)N=C3C)cc2)cc1` (configuration not stated), the TGI in test [1], in [2], in [3], in test [4], in test [5] and in test [6] was above 100 µM in each case. In addition, the TGI in test [7], in [8], in test [9], in [10], in test [11] and in test [12] was above 100 µM in each case. Also, the TGI in [13], in [14], in test [15], in test [16], in test [17] and in test [18] was above 100 µM throughout.
